# Assay results reported in paper PMC7468108 (Communications Biology, 2020).
# Key:
# [1] = target: T1, pre-formed fibrils of Aβ42 (Homo sapiens, UniProt P05067); assay: CD spectroscopy of pre-formed Aβ42 fibrils with the tested molecules; conditions: Aβ42 (10 µM) : molecule 1:5
# T1 construct: purchased rPeptide (USA)
# Description: For efficient treatment of proteinopathies it may be advantageous to disassemble amyloid aggregates/fibrils which are usually already present at the time of diagnosis[75]–[77]. […] Then, various doses of the hybrid molecules were added to the pre-formed fibrils and the mixtures were incubated for additional 10 h. The process of disaggregation was monitored by ThT-binding assay, CD spectroscopy, TEM and Congo red staining (Fig. 5).
# The blank was subtracted from the acquired CD spectra. For the CD study in the presence of the tryptophan-galacosylamine molecules, the spectra of hybrid molecules were also recorded separately and subtracted from the respective sample spectra. The normalized data were plotted using Origin pro 2015 software.
# [2] = target: T2, pre-formed fibrils of hIAPP (Homo sapiens, UniProt P10997); assay: Congo red birefringence of pre-formed hIAPP fibrils with the tested molecules; conditions: 5-fold molar excess of compound
# T2 construct: hIAPP is a 37-amino acid neuroendocrine peptide hormone; purchased Peptide 2.0 (USA)
# T2 sequence (P10997 34-70 limits assumed): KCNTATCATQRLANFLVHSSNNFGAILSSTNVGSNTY
# Description: For efficient treatment of proteinopathies it may be advantageous to disassemble amyloid aggregates/fibrils which are usually already present at the time of diagnosis[75]–[77]. Therefore, the ability of the hybrid molecules to disrupt pre-formed fibrils of Aβ42 and hIAPP was examined. […] According to the ThT kinetic results, this time was sufficient to complete fibril formation (Fig. 2a, d). Then, various doses of the hybrid molecules were added to the pre-formed fibrils and the mixtures were incubated for additional 10 h. The process of disaggregation was monitored by ThT-binding assay, CD spectroscopy, TEM and Congo red staining (Fig. 5).
# T1 sequence (P05067 672-713 limits assumed): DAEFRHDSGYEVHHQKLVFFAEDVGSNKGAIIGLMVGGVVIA
compound,measurement,setting,value
NC(Cc1c[nH]c2ccccc12)C(=O)NC(Cc1c[nH]c2ccccc12)C(=O)O (centres unmarked) [WW],Normalized CD spectra,[1]; wave length 190.00,-73553.54
same,Normalized CD spectra,[1]; wave length 190.50,-15766.44
same,Normalized CD spectra,[1]; wave length 191.00,35958.05
same,Normalized CD spectra,[1]; wave length 191.50,81619.94
same,Normalized CD spectra,[1]; wave length 192.00,121219.23
same,Normalized CD spectra,[1]; wave length 192.50,154755.92
same,Normalized CD spectra,[1]; wave length 193.00,182230.00
same,Normalized CD spectra,[1]; wave length 193.50,203641.48
same,Normalized CD spectra,[1]; wave length 194.00,218990.36
same,Normalized CD spectra,[1]; wave length 194.50,228276.63
same,Normalized CD spectra,[1]; wave length 195.00,231500.30
same,Normalized CD spectra,[1]; wave length 195.50,225800.71
same,Normalized CD spectra,[1]; wave length 196.00,212602.53
same,Normalized CD spectra,[1]; wave length 196.50,192673.83
same,Normalized CD spectra,[1]; wave length 197.00,167389.33
same,Normalized CD spectra,[1]; wave length 197.50,138095.62
same,Normalized CD spectra,[1]; wave length 198.00,105620.63
same,Normalized CD spectra,[1]; wave length 198.50,71268.15
same,Normalized CD spectra,[1]; wave length 199.00,34612.79
same,Normalized CD spectra,[1]; wave length 199.50,-3059.42
same,Normalized CD spectra,[1]; wave length 200.00,-41012.41
same,Normalized CD spectra,[1]; wave length 200.50,-77900.86
same,Normalized CD spectra,[1]; wave length 201.00,-113482.60
same,Normalized CD spectra,[1]; wave length 201.50,-149046.90
same,Normalized CD spectra,[1]; wave length 202.00,-184972.48
same,Normalized CD spectra,[1]; wave length 202.50,-219485.50
same,Normalized CD spectra,[1]; wave length 203.00,-252839.40
same,Normalized CD spectra,[1]; wave length 203.50,-284772.39
same,Normalized CD spectra,[1]; wave length 204.00,-314917.56
same,Normalized CD spectra,[1]; wave length 204.50,-342821.04
same,Normalized CD spectra,[1]; wave length 205.00,-369216.74
same,Normalized CD spectra,[1]; wave length 205.50,-393550.37
same,Normalized CD spectra,[1]; wave length 206.00,-417348.83
same,Normalized CD spectra,[1]; wave length 206.50,-438915.06
same,Normalized CD spectra,[1]; wave length 207.00,-457557.09
same,Normalized CD spectra,[1]; wave length 207.50,-473195.60
same,Normalized CD spectra,[1]; wave length 208.00,-486009.60
same,Normalized CD spectra,[1]; wave length 208.50,-496658.21
same,Normalized CD spectra,[1]; wave length 209.00,-506978.42
same,Normalized CD spectra,[1]; wave length 209.50,-515749.12
same,Normalized CD spectra,[1]; wave length 210.00,-522740.26
same,Normalized CD spectra,[1]; wave length 210.50,-528398.60
same,Normalized CD spectra,[1]; wave length 211.00,-534227.02
same,Normalized CD spectra,[1]; wave length 211.50,-539337.45
same,Normalized CD spectra,[1]; wave length 212.00,-544717.07
same,Normalized CD spectra,[1]; wave length 212.50,-549064.94
same,Normalized CD spectra,[1]; wave length 213.00,-552893.06
same,Normalized CD spectra,[1]; wave length 232.00,-158822.48
same,Normalized CD spectra,[1]; wave length 232.50,-145896.86
same,Normalized CD spectra,[1]; wave length 233.00,-133288.90
same,Normalized CD spectra,[1]; wave length 233.50,-121276.73
same,Normalized CD spectra,[1]; wave length 234.00,-108420.01
same,Normalized CD spectra,[1]; wave length 234.50,-94402.20
same,Normalized CD spectra,[1]; wave length 235.00,-80851.94
same,Normalized CD spectra,[1]; wave length 235.50,-67553.80
same,Normalized CD spectra,[1]; wave length 236.00,-53046.10
same,Normalized CD spectra,[1]; wave length 236.50,-38359.94
same,Normalized CD spectra,[1]; wave length 237.00,-24169.94
same,Normalized CD spectra,[1]; wave length 237.50,-9295.33
same,Normalized CD spectra,[1]; wave length 238.00,4979.26
same,Normalized CD spectra,[1]; wave length 238.50,18805.26
same,Normalized CD spectra,[1]; wave length 239.00,32522.94
same,Normalized CD spectra,[1]; wave length 239.50,44912.46
same,Normalized CD spectra,[1]; wave length 240.00,56635.42
same,Normalized CD spectra,[1]; wave length 240.50,67013.51
same,Normalized CD spectra,[1]; wave length 241.00,74841.22
same,Normalized CD spectra,[1]; wave length 241.50,81258.78
same,Normalized CD spectra,[1]; wave length 242.00,86276.81
same,Normalized CD spectra,[1]; wave length 242.50,90384.02
same,Normalized CD spectra,[1]; wave length 243.00,92798.03
same,Normalized CD spectra,[1]; wave length 243.50,93594.35
same,Normalized CD spectra,[1]; wave length 244.00,93999.17
same,Normalized CD spectra,[1]; wave length 244.50,92992.13
same,Normalized CD spectra,[1]; wave length 245.00,90422.16
same,Normalized CD spectra,[1]; wave length 245.50,86663.60
same,Normalized CD spectra,[1]; wave length 246.00,82929.71
same,Normalized CD spectra,[1]; wave length 246.50,77838.15
same,Normalized CD spectra,[1]; wave length 247.00,72115.03
same,Normalized CD spectra,[1]; wave length 247.50,67454.01
same,Normalized CD spectra,[1]; wave length 248.00,62170.09
same,Normalized CD spectra,[1]; wave length 248.50,58159.55
same,Normalized CD spectra,[1]; wave length 249.00,54507.86
same,Normalized CD spectra,[1]; wave length 249.50,50774.14
same,Normalized CD spectra,[1]; wave length 250.00,48265.73
same,Normalized CD spectra,[1]; wave length 250.50,46578.32
same,Normalized CD spectra,[1]; wave length 251.00,45531.49
same,Normalized CD spectra,[1]; wave length 251.50,45968.11
same,Normalized CD spectra,[1]; wave length 252.00,46977.38
same,Normalized CD spectra,[1]; wave length 252.50,48862.26
same,Normalized CD spectra,[1]; wave length 253.00,50826.53
same,Normalized CD spectra,[1]; wave length 253.50,52698.23
same,Normalized CD spectra,[1]; wave length 254.00,54591.66
same,Normalized CD spectra,[1]; wave length 254.50,55574.45
same,Normalized CD spectra,[1]; wave length 255.00,55730.02
same,Normalized CD spectra,[1]; wave length 255.50,53034.53
same,Normalized CD spectra,[1]; wave length 256.00,49400.95
same,Normalized CD spectra,[1]; wave length 256.50,44829.26
same,Normalized CD spectra,[1]; wave length 257.00,39319.47
same,Normalized CD spectra,[1]; wave length 257.50,32871.59
same,Normalized CD spectra,[1]; wave length 258.00,25485.60
same,"Congo red birefringence of pre-formed hIAPP fibrils, in words",[2],unchanged
